Results on 18 molecules are retold here after ChEMBL document CHEMBL6134894, “Medoxomil Prodrug Strategies” (J Med Chem, 2025).

The subject of data set [1] is Human immunodeficiency virus 1. As to the kind of experiment: Antiviral activity against HIV-1 infected in human MT4 cells assessed as inhibition of viral growth. It is filed as functional, organism-based. To be noted: Human immunodeficiency virus 1, MT4.
Data set [2] is described as follows: Oral bioavailability in Sprague-Dawley rat. It is filed as ADME, organism-based. As to conditions: in vivo.
The nature of data set [3]: Lipophilicity, logP of the compound. It is filed as physicochemical. As to conditions: octanol/water.
Data set [4] in a line: Oral bioavailability in Beagle dog. It is filed as ADME, organism-based, Canis lupus familiaris. To be noted: in vivo.
The nature of data set [5]: Water solubility of the compound at pH 7.4 by HPLC analysis. It is filed as physicochemical.
The nature of data set [6]: Inhibition of ADP-induced platelet aggregation in New Zealand White rabbit. It is filed as functional, Oryctolagus cuniculus.
Data set [7] in a line: Oral bioavailability in dog at 0.03 mg/kg. It is filed as ADME, organism-based, Canis lupus familiaris. As to conditions: in vivo.
Data set [8] in a line: Oral bioavailability in rat. It is filed as ADME, organism-based. To be noted: in vivo.
Data set [9] in a line: Oral bioavailability in Sprague-Dawley rat at 10 mg/kg measured for 24 hrs by LC-MS/MS analysis. It is filed as ADME, organism-based. As to conditions: in vivo.
Data set [10] in a line: Permeability across apical to basolateral side in human Caco-2 cells. It is filed as ADME, cell-based. As to conditions: read-out: permeability. On the technique in general: Passage across Caco-2 layers is used to estimate intestinal permeability.
Data set [11] is described as follows: Toxicity in Wistar rat assessed as effective dose. To be noted: in vivo, 6 h.
The nature of data set [12]: Half life in Wistar rat at 20 mg/kg, po by LC-MS/MS analysis. It is filed as ADME, organism-based. As to conditions: in vivo.
Data set [13] in a line: AUC in human at 20 mg/kg, po by LC-MS/MS analysis. As to conditions: in vivo. It is filed as ADME, organism-based.
Data set [14] in a line: Cmax in human at 20 mg/kg, po by LC-MS/MS analysis. As to conditions: in vivo. It is filed as ADME, organism-based.

One may read the EC50 as the concentration needed to bring the measured effect to its halfway point. Usually bioavailability stands for the share of a dose that reaches the circulation, judged against a reference dose that is usually intravenous. What is called logP is a log measure of how a compound divides between an organic and an aqueous phase. A word on the solubility: it is the concentration that dissolves in the medium under given conditions. Low readings indicate little dissolved substance, high ones much dissolved substance. Usually ED50 stands for the dose at which the effect has come halfway, by size or by number of responders. Usually half-life stands for how long it takes for the measured level to halve. Low readings indicate rapid decline, high ones slow decline. By AUC is commonly meant the area under the concentration-time curve, a measure of exposure. A lower AUC goes with less exposure. The term Cmax denotes the maximum level reached in the sampled fluid or tissue.

As to `Cc1oc(=O)oc1COP(=O)(O)COCCn1cnc2c(N)ncnc21`, the EC50 in data set [1] is 10.6 µM. In data set [2], `C=C(c1ccc(C(=O)OCC)cc1)c1cc2c(cc1C)C(C)(C)CCC2(C)C` had a bioavailability of 35%. Consider `Cc1oc(=O)oc1COC(=O)CC[C@H](NC(=O)c1ccc(CCc2c[nH]c3[nH]c(N)nc(=O)c23)cc1)C(=O)O`, for which the logP in data set [3] (read-out: logP) turned out to be 1.72. For the molecule `Cc1oc(=O)oc1COC(=O)CC[C@H](NC(=O)c1ccc(CCc2c[nH]c3[nH]c(N)nc(=O)c23)cc1)C(=O)OCc1oc(=O)oc1C`, the logP in data set [3] (read-out: logP) stood at 2.64.

The molecule `Cc1oc(=O)oc1COC(=O)[C@@](C)(N)Cc1ccc(O)c(O)c1` displayed a bioavailability in [4] of 92.1%. `Cc1oc(=O)oc1COC(=O)N1CC[C@@H](N2CC/C(=C\C3=C(C(=O)O)N4C(=O)[C@@H](NC(=O)/C(=N\O)c5nsc(N)n5)[C@H]4SC3)C2=O)C1` registered a solubility in [5] of over 200 µg/mL. In the case of `Cc1oc(=O)oc1COC(=O)N1CCC(CC[C@@H]2CCCN(CC(=O)N[C@H](C)CC(=O)O)C2=O)CC1`, the “inhibition (INH)” value in data set [6] is on record as 100%. In addition, in [7], the bioavailability was found to be 23%. The molecule `C=C(c1ccc(C(=O)OCc2oc(=O)oc2C)cc1)c1cc2c(cc1C)C(C)(C)CCC2(C)C` gave a bioavailability in data set [2] of 12%. Regarding `Nc1ncnc2c1ncn2CCOCP(=O)(O)O` [ADEFOVIR], the EC50 in [1] amounted to 10.4 µM. The molecule `COC(=O)N[C@H](C(=O)N[C@@H](Cc1ccccc1)[C@@H](O)CN(Cc1ccc(-c2ccccn2)cc1)NC(=O)[C@@H](NC(=O)OC)C(C)(C)C)C(C)(C)C` [ATAZANAVIR] displayed a F in [8] of 1%. In addition, in data set [9], the bioavailability turned out to be 20%. As to `CCOc1nc2cccc(C(=O)OCc3oc(=O)oc3C)c2n1Cc1ccc(-c2ccccc2-c2noc(=O)[nH]2)cc1` [AZILSARTAN MEDOXOMIL], in data set [10], the Papp A→B worked out at 2.8 ×10⁻⁶ cm/s. On the same count and under the same terms, for `CCOc1nc2cccc(C(=O)O)c2n1Cc1ccc(-c2ccccc2-c2noc(=O)[nH]2)cc1` [AZILSARTAN] the value was 0.636 ×10⁻⁶ cm/s. In [2], `C=C(c1ccc(C(=O)O)cc1)c1cc2c(cc1C)C(C)(C)CCC2(C)C` [BEXAROTENE] returned a bioavailability of 75%.

Take `CCCCc1nc(Cl)c(C(=O)O)n1Cc1ccc(-c2ccccc2-c2nn[nH]n2)cc1` [CARBOXYLIC ACID METABOLITE]: the median effective dose (ED50) in [11] was 9.05 µg/kg.

In turn, `C[C@](N)(Cc1ccc(O)c(O)c1)C(=O)O` [METHYLDOPA] yielded a bioavailability in data set [4] of 94.2%. In data set [12], `CCCc1nc(C(C)(C)O)c(C(=O)O)n1Cc1ccc(-c2ccccc2-c2nnn[nH]2)cc1` [OLMESARTAN] had a half-life of 30 min.

For `Nc1nc2[nH]cc(CCc3ccc(C(=O)N[C@@H](CCC(=O)O)C(=O)O)cc3)c2c(=O)[nH]1` [PEMETREXED], the logP in data set [3] is given as 0.75. In turn, `CC1Sc2c(C(=O)O)c(=O)c3cc(F)c(N4CCNCC4)cc3n21` (stereo unspecified) [ULIFLOXACIN] showed an AUC in data set [13] of 22200 ng·h/mL. In addition, the Cmax in data set [14] was 630 ng/mL.
